Data taken from US20240082342A1, “PEPTIDE THERAPEUTICS FOR INCREASING LUNG CELL VIABILITY” (BOARD OF REGENTS, THE UNIVERSITY OF TEXAS SYSTEM, priority 2018, published 2024).
“Also recorded” adds a separate entry of the source.

How the values were obtained:
A2ECs treated with CSE = test: A2ECs exposed to cigarette smoke extract (CSE) in vitro; type: cell-based; settings: primary A2ECs + CSE
Description: A2ECs were treated with PBS, CSP or its fragment, CSP7 or control peptide (CP), 2 h after exposure of cells to CSE. A2EC lysates were immunoblotted for acetylated/total p53 and active/total caspase-3 24 h after CSE exposure. β-actin levels were evaluated to assess equal loading.
To further confirm CSP7 mimics CSP effect, primary A2ECs were treated with cigarette smoke extract (CSE) prepared in PBS in the presence of CSP or CSP7. The A2ECs treated with CSE and CP or PBS alone were used as controls. The A2EC lysates were tested for acetylated and total p53, apoptosis and Sirt1 expression. CSE induced total and acetylated p53 while inhibiting Sirt1 expression in A2ECs indicating inhibition of Sirt1-mediated deacetylation of p53 contributes to induction of acetylated and total p53 and A2EC apoptosis.

[1] = system: A2Cs of miR-34a^fl/fl and miR-34a^cKO mice; test: Tobacco smoke exposure of miR-34a fl/fl and miR-34a cKO mice; type: in vivo, mouse; settings: for telomerase enzyme activity: TS; for telomere shortening (qPCR): 20 weeks TS
Description: (§1) To analyze the effect of cigarette smoke, mice were exposed to passive smoke from 40 research cigarettes over a 2-hour period once (2 h) or twice (4 h) daily for 5 days/week for 20 weeks (˜90 mg/m^3 total solid particulates) using a mechanical smoking chamber (Teague Enterprises, Davis, CA). Control mice were exposed to ambient air. At the 18th week, peptide treatment at a dosage of 30 μg/20 g body weight was initiated and continued on a daily basis for the next 14 days. At the end of the experiment, the mice were euthanized and used for the experiments.
(§2) To test the effect of chronic TS exposure induced lung injury, these mice were exposed to passive TS from 40 research cigarettes over a 4 h period 5 days/week for 20 weeks (˜90 mg/m3 total solid particulates) using a mechanical smoking chamber (Teague Enterprises, Davis, CA) as described earlier. (Bhandary et al, 2015). Control mice were kept in ambient air. After sixteen weeks of daily passive TS exposure, mice with TS exposure injury were treated with CSP7 at a dosage of 1.5 mg/kg body weight daily 5 days/week for the next four weeks. These mice were continued with daily exposure of 4 h of TS during CSP7 treatment. At the end of the experiment (after 20 weeks of TS exposure), the mice were euthanized, and lungs were utilized for further analyses. To expand the local delivery options of CSP7 to directly treat the damaged lung by air-jet milling for dry powder inhalation (DPI). Mice exposed to TSE were treated with CSP7 using a rotating brush generator for 15 min daily for 7 days. Fourteen days later, BLM mice were subjected to daily inhalation of micronized CSP7 (0.05 mg/kg/d) DP through air-jet-milling for seven consecutive days using a rotating brush exposure system. The rotating brush exposure system gave a consistent minimal chamber concentration of 0.1 mg/L. In order to match dosing of DP inhalation, animal exposure times were adjusted to approximately 15 minutes and an estimated dose of 0.05 mg/kg/d or 1.00 microgram/lung was administered.
Inducible conditional knockout (miR-34a^cKO) mice lacking miR-34a expression in A2ECs were generated by crossing miR-34a^fl/fl mice with SP-C^Cre/mTmG mice (FIG. 62A). RNA from A2ECs of miR-34a^fl/fl or miR-34a^cKO mice treated with tamoxifen were analyzed for miR-34a. […] After 20 weeks, A2ECs were isolated from these mice and analyzed for changes in miR-34a. […] A2ECs from miR-34a^fl/fl and miR-34a^cKo mice were next isolated and tested the lysates for changes in p53 and PAI-1 expression, and apoptosis. PTS induced p53 and PAI-1 expression in A2ECs of miR-34a^fl/fl mice. These changes were associated increased of A2EC apoptosis and senescence. […] These mice also resisted A2ECs apoptosis or senescence (FIG. 62C).

A2Cs of uPA^−/− mice = test: Tobacco smoke or repeated bleomycin exposure of uPA-/- mice; type: in vivo, mouse
Description: as §1
To analyze the effect of BLM, mice were exposed to BLM (40 μg/20 g body weight) once per two week for 16 weeks. Control mice were exposed to normal saline. At 14th week the peptide treatment at a dosage of 30 μg/20 g body weight was initiated and continued on a daily basis for the next 14 days. At the end of the experiment, the mice were euthanized and used for the experiments.
as §2
To evaluate the effect of CSP7 against chronic BLM-induced PF, the mice were exposed to BLM (40 μg/20 g body weight) once every two weeks for 16 weeks as described elsewhere. (Tiwari et al, 2016). Control mice were exposed to normal saline. Fourteen weeks later the CSP7 at a dosage of 1.5 mg/kg body weight was administered by IP injection and continued daily basis for the next two weeks as described elsewhere. (Tiwari et al, 2016; Shetty et al, 2008b). At the end of the experiment, the mice were euthanized and lung tissues and isolated A2Cs from the extracted lung tissues were used for further analysis.

AECs from COPD lungs = AECs from COPD lungs treated in vitro for 48 h; type: cell-based, human
WT mice with CS-LI = test: Chronic CS/TSE lung injury in WT mice treated by nebulization or IP injection; type: in vivo, mouse

Q: For “DGIWKASFTTFTVTKYWFYR (listed as Homo sapiens) [CSP, 20 residue caveolin-1 scaffolding domain peptide]”, which CSE-induced apoptosis (A2ECs treated with CSE) is on record?
A: inhibited CSE-induced apoptosis

Q: “WGIDKAFFTTSTVTYKWFRY [CP, scrambled control peptide with the same amino acid composition as CSP, reference compound]” was tested. Which telomerase enzyme activity ([1]; miR-34a^fl/fl mice) did it give?
A: little effect

Q: And the “TRF1, TRF2 and TERT expression in A2Cs” value (A2Cs of uPA^−/− mice; uPA-/- mice, TS)?
A: no significant change

Q: What about the “MUC5AC, HDAC6, FOXA3, CAV1 and FOXA2 mRNA (qPCR)” value (AECs from COPD lungs) of the same substance?
A: continued to exhibit elevated levels of MUC5AC, HDAC6, FOXA3, and CAV1 mRNA with low FOXA2 mRNA

Q: And the “H&E alveolar damage / mean linear intercept (MLI)” value (WT mice with CS-LI; Neb and IP)?
A: continued to show 479 alveolar damage

Q: What about the “IHC MUC5AC and HDAC6 staining in lung sections” value (WT mice with CS-LI; Neb or IP) of the same substance?
A: not evident

Q: And the “co-localization of MUC5AC and HDAC6 in lung sections” value (WT mice with CS-LI; Neb or IP)?
A: Increased staining and co-localization

Q: With “FTTFTVT (listed as Homo sapiens) [CSP7, heptapeptide fragment of the caveolin-1 scaffolding domain peptide CSP]” as the substance, how does the “miR-34a expression in A2ECs (qRT-PCR)” value ([1]; WT or miR-34a^fl/fl mice, 20 weeks PTS) read?
A: reduced miR-34a expression

Q: What about the “telomere shortening (qPCR)” value ([1]; WT or miR-34a^fl/fl mice) of the same substance?
A: protected from telomere shortening; also recorded: significant protection against TS-induced telomere shortening

Q: What about the “miR-34a expression in A2ECs” value ([1]; miR-34a^cKO mice, 20 weeks PTS) of the same substance?
A: minimal effect

Q: What about the “telomere shortening (qPCR)” value ([1]; miR-34a^cKO mice) of the same substance?
A: minimal effect

Q: What about the telomerase enzyme activity ([1]; miR-34a^cKO mice) of the same substance?
A: did not upregulate telomerase activity; also recorded: limited effects on baseline telomerase activity

Q: What about the “p53, PAI-1, A2EC apoptosis and senescence” value ([1]; miR-34a^fl/fl mice, PTS) of the same substance?
A: inhibited p53, PAI-1 and A2EC apoptosis and senescence

Q: And the telomerase enzyme activity ([1]; miR-34a^fl/fl mice)?
A: significant upregulation; also recorded: reversed

Q: And the “p53, ACp53, S15p53, apoptosis, senescence, PAI-1, SIAH1/2, TRF1, TRF2, PNUTS, TERT (Western blot)” value (A2Cs of uPA^−/− mice; uPA-/- mice, 8×BLM PF)?
A: minimal effect

Q: And the “telomerase enzyme activity (trapeze)” value (A2Cs of uPA^−/− mice; uPA-/- mice, 8×BLM PF)?
A: failed to restore

Q: What about the “telomere length (qPCR)” value (A2Cs of uPA^−/− mice; uPA-/- mice, 8×BLM PF) of the same substance?
A: failed to restore telomere length

Q: What about the “telomere shortening (qPCR)” value (A2Cs of uPA^−/− mice; uPA-/- mice, 20 weeks TS) of the same substance?
A: failed to respond to CSP7 treatment

Q: And the telomere shortening (A2Cs of uPA^−/− mice; uPA-/- mice, 20 weeks smoke or repeated BLM, vs CP)?
A: did not show significant difference in telomere shortening

Q: What about the “IHC of lung sections for TRF1” value (A2Cs of uPA^−/− mice; uPA-/- mice, TS) of the same substance?
A: minimal inhibition

Q: And the “TRF1, TRF2 and TERT expression in A2Cs” value (A2Cs of uPA^−/− mice; uPA-/- mice, TS)?
A: no significant change

Q: What about the “p53 modification/induction, active caspase-3, β-galactosidase (Western blot)” value (A2Cs of uPA^−/− mice; uPA-/- mice, TS) of the same substance?
A: failed to inhibit post-translational modification or induction of p53, active caspase-3 or β-galactosidase

Q: And the telomerase activity (A2Cs of uPA^−/− mice; uPA-/- mice, TS)?
A: inability of CSP7 to reverse telomere shortening or improve telomerase activity

Q: What about the “activation of p53, caspase-3, β-galactosidase (Western blot)” value (A2Cs of uPA^−/− mice; uPA-/- mice, smoke or BLM) of the same substance?
A: failed to inhibit activation of p53, caspase-3 as well as β-galactosidase

Q: What about the “telomerase enzyme activity (trapeze)” value (A2Cs of uPA^−/− mice; uPA-/- mice, smoke or BLM) of the same substance?
A: did not restore the telomerase enzyme activity

Q: What about the “TRF1, TRF2 and TERT expression” value (A2Cs of uPA^−/− mice; uPA-/- mice, smoke or BLM, CSP7 vs CP groups) of the same substance?
A: no significant change

Q: What about the “p53-induced PAI-1 expression or telomere dysfunction” value (A2Cs of uPA^−/− mice; uPA-deficient mice, TS- and 8×BLM-induced lung injury) of the same substance?
A: failed to suppress p53-induced PAI-1 expression or telomere dysfunction

Q: And the “CIP2A mRNA” value (AECs from COPD lungs)?
A: significant suppression of CIP2A mRNA

Q: And the “MUC5AC, HDAC6, FOXA3, CAV1 and FOXA2 mRNA (qPCR)” value (AECs from COPD lungs)?
A: reversed by CSP7 treatment; also recorded: significantly suppressed

Q: What about the “co-localization of MUC5AC/HDAC6 and Ac-Tub/LC3 (immunofluorescence)” value (AECs from COPD lungs) of the same substance?
A: co-localization was reversed

Q: What about the “number of ciliated AECs and cilia length” value (AECs from COPD lungs) of the same substance?
A: restored

Q: What about the “acridine orange staining of acidic vesicles (late autophagic vacuoles)” value (AECs from COPD lungs; 6 h) of the same substance?
A: reversed by CSP7; also recorded: marked reduction in red fluorescence

Q: And the “Cav1 mRNA (qPCR)” value (AECs from COPD lungs; 48 h)?
A: reversed

Q: And the “Ac-Tub staining in tracheal sections” value (WT mice with CS-LI; 20 weeks TSE/CS)?
A: reversed in CSP7 treated WT mice; also recorded: improved

Q: And the “PAI-1 expression in AT2 cells” value (WT mice with CS-LI; CS-LI WT mice)?
A: reduced

Q: What about the “total, acetylated, serine phosphorylated p53, cleaved caspase-3, β-galactosidase in AT2 cells” value (WT mice with CS-LI; CS-LI WT mice, IP) of the same substance?
A: markedly suppressed

Q: What about the “MUC5AC and HDAC6 mRNA in TECs” value (WT mice with CS-LI; CS-LI mice) of the same substance?
A: significantly reduced

Q: What about the “MUC5AC, HDAC6, FOXA3, CAV1 and FOXA2 mRNA in lung” value (WT mice with CS-LI; CS-LI mice) of the same substance?
A: significant reduction in MUC5AC, HDAC6, FOXA3, and CAV1 mRNA

Q: What about the “PP2A and CIP2A mRNA in lung” value (WT mice with CS-LI; CS-LI mice) of the same substance?
A: reversed

Q: What about the “macrophages in bronchoalveolar lavage” value (WT mice with CS-LI; CS-LI mice) of the same substance?
A: significantly reduced

Q: And the “number of ciliated (Ac-Tub positive) tracheal epithelial cells” value (WT mice with CS-LI; MTEC/TECs isolated from treated mice)?
A: reversal; also recorded: significantly reversed; also recorded: increased the number of ciliated TECs

Q: What about the “H&E alveolar damage / mean linear intercept (MLI)” value (WT mice with CS-LI; Neb and IP) of the same substance?
A: reversed; also recorded: significantly (P<0.0001) reduced

Q: What about the “IHC Ac-Tubulin, LC3 (and CAV1) in lung sections” value (WT mice with CS-LI; Neb and IP) of the same substance?
A: reversed in CSP7 (Neb and IP) treated WT mice

Q: And the “IHC Cav1 expression in lung sections” value (WT mice with CS-LI; Neb and IP)?
A: overcome

Q: What about the “IHC MUC5AC and HDAC6 staining in lung sections” value (WT mice with CS-LI; Neb or IP) of the same substance?
A: reversed; also recorded: remarkably improved; also recorded: markedly reduced

Q: And the “MUC5AC, HDAC6, SPDEF, LC3, FOXA2, Ac-tubulin in lung homogenates” value (WT mice with CS-LI; Neb or IP)?
A: alleviated TSE MUC5AC and HDAC6 expression; also recorded: reversed

Q: What about the “co-localization of MUC5AC and HDAC6 in lung sections” value (WT mice with CS-LI; Neb or IP) of the same substance?
A: reversed; also recorded: markedly reduced in those treated with CSP7

Q: What about the “CAV1, p53 and PAI-1 in lung homogenates” value (WT mice with CS-LI; via airways or systemically) of the same substance?
A: marked inhibition of CAV1, p53, and PAI-1

Q: What about the CSE-induced apoptosis (A2ECs treated with CSE) of the same substance?
A: inhibited CSE-induced apoptosis
